Laboratory results taken from paper PMC7756582, “Prodrugs of γ‐Alkyl‐Modified Nucleoside Triphosphates: Improved Inhibition of HIV Reverse Transcriptase” (Angewandte Chemie (International Ed. in English), 2020).
Where two headings read alike, the source gives them in different places.

Assays:
human DNA polymerase β = target: T1, human DNA polymerase β (Homo sapiens, UniProt P06746); experiment: Primer extension assay with human DNA polymerase β; type: biochemical; details: single triphosphate, 66 μM, Pol β 6 U, 60 min
T1 construct: purchased Roboklon
Procedure: Two different set‐ups have been used. First, a mixture of dATP, dCTP, dGTP, and γ‐alkyl‐TTP (N*) or ‐d4TTP (T*) was used as a mixture. The results obtained from these experiments were compared to those in which just γ‐alkyl‐TTP (N) or d4TTP (T) was used. In each experiment a primer extension without added polymerase (negative control, ‐ lane) and an experiment in which all four canonical NTPs were added (positive control, +lane) were used as controls.
Figure 4 Primer extension assay using DNA polymerase β and the γ‐alkyl‐dNTP 7 and 15. Lane 1 (−): dATP, dGTP, dCTP and TTP without human DNA polymerase β; lane 2 (+): dATP, dGTP, dCTP, and TTP with human Pol β; lane 3 (N, C4‐T): γ‐C4‐TTP 15 w; lane 4 (N, C18‐T): γ‐C18‐TTP 15 z; lane 5 (T, C4‐d4T): γ‐C4‐d4TTP 7 w; lane 6 (T, C11‐d4T): γ‐C11‐d4TTP 7 x; lane 7 (T, C18‐d4T): γ‐C18‐d4TTP 7 z; lane 8 (d4TTP): d4TTP. […]
(§1) Anti-HIV activity assay: Inhibition of HIV-1(IIIB)- and HIV-2(ROD)-induced cytopathicity in wild-type CEM/0 and thymidine kinase-deficient CEM/TK- cell cultures was measured in microtiter 96-well plates containing ~3·105 CEM cells/mL infected with 100 CCID50 of HIV per milliliter and containing appropriate dilutions of the test compounds. […]
2) For HIV- RT assay: The final assay solution (10 µL) consists of 50 mM Tris-HCl (pH 8.6 at 22 °C), 10 mM MgCl2, 40mM KCl, dNTPs 66 µM, HIV RT 6 U, Hybrid 0.32 µM in a reaction volume of 10 µL, incubated 37 °C for 15 min, 80 °C for 3 min; 50 mA, 45w for 4 h. […] The result was visualized by fluorescence imaging.
3) For human DNA pol β assay: The final assay solution (10 µL) consists of 50 mM Tris-HCl (pH 8.7), 10 mM MgCl2, 100mM KCl, 1.0 mM dithiothreitol, 0.4 mg/ml of bovine serum albumin, 15% glycerol, dNTPs 66 µM, DNA Polymerase Beta 6 U, Hybrid 0.32 µM in a reaction volume of 10 µL, incubated 37 °C for 60 min, 80 °C for 3 min; 50 mA, 45w for 4 h. […] The result was visualized by fluorescence imaging. […]

HIV-2(ROD) = experiment: Anti-HIV activity assay, HIV-2-infected wild-type CEM/0 cell cultures; type: cell-based; details: Human immunodeficiency virus 2, CCRF-CEM, read-out: EC50 CEM/0 HIV-2
Procedure: γ‐(AB,alkyl)‐d4TTP prodrugs 6 and the γ‐alkyl‐d4TTPs 7 were evaluated for their ability to inhibit the replication of HIV in HIV‐1‐ or HIV‐2‐infected wild‐type CEM/0 as well as mutant thymidine‐kinase‐deficient CEM cell cultures (CEM/TK^−). For comparison, two TriPPPro derivatives 5 were also included in this assay.
as §1, with “compounds. After 4−5 days of incubation at 37 °C in a CO2-controlled humidified atmosphere, CEM giant (syncytium) cell formation was examined microscopically.” for “compounds.”
was defined as the compound concentration required to inhibit HIV-induced giant cell formation by 50%. […]
(§2) The result was visualized by fluorescence imaging. […]
as §2

[1] = target: T2, HIV reverse transcriptase (RT) (Human immunodeficiency virus type 1 group M subtype B, UniProt P03366); experiment: Primer extension assay with HIV-RT; type: biochemical, HIV-1; details: for primer extension by HIV-RT (substrate properties): with the other three canonical triphosphates, HIV-RT 6 U
T2 construct: reverse transcriptase (RT; an HIV‐encoded RNA‐dependent DNA polymerase); purchased Roboklon
Procedure: Primer-extension reactions:
HIV-RT and human DNA polymerase β and γ were obtained from Roboklon, human DNA polymerase α was obtained from Chimerx.
The primers and templates were purchased from Life Technologies and Microsynth. The fluorescent labeled primer was purchased
from Metabion and Microsynth. The gels were prepared with the size of 450mm×200mm×0.4mm according to the electrophoresis
5’-FITC and 5’-Cy3 labeled Primer-sequence:
The primer extension assays were performed under the following conditions:
FITC and Cy3 labeled primer extension assay:
1) Hybridization: After 5 min incubation at 95 °C in 20 mM Tris-HCl (pH 7.6) and 50 mM NaCl, the hybridization/annealing of the
primer to the template strand was achieved by a cooling phase from 95 °C to […] lasted more than 2 hours. […]
The assays were separated using a denaturating PAGE (15%). The result was visualized by fluorescence imaging. […]
as §2, §2

[2] = Cytotoxicity: inhibition of CD4+ T-cell (CEM) proliferation; type: cell-based; details: human, CEM/0 cells (CD4+ T-cells), 50 % cytostatic concentration, mean±SD, n=2-3
[3] = wild-type CEM/0 cells, HIV-2, mean±SD, n=2-3

| SMILES | primer extension by DNA polymerase β (substrate properties) (human DNA polymerase β) | EC50 (HIV-2(ROD)) | primer extension by HIV-RT (substrate properties) ([1]; 60 min incubation, dNTPs 66 μM) | CC50 [2] | EC50 (HIV-2(ROD); [3]) | primer extension by HIV-RT (substrate properties) ([1]; 15 min incubation) | comparison of substrate properties for HIV-RT ([1]; incubation 10, 20, 40 and 60 min, conversion of primer to n+1 product) | primer extension by HIV-RT (substrate properties) ([1]; 30 min incubation) |
| --- | --- | --- | --- | --- | --- | --- | --- | --- |
| Cc1cn(C2C=CC(COP(=O)(O)OP(=O)(O)OP(=O)(O)O)O2)c(=O)[nH]c1=O (stereo not drawn) [2 t, d4TTP, reference compound] | efficiently incorporated | 400 ± 260 nM | only the n+1 band is visible | > 100000 nM | – | – | – | – |
| CCCCCCCCCCCCCCCCCCOP(=O)(OCc1ccc(OC(=O)CCCC)cc1)OP(=O)(O)OP(=O)(O)OCC1C=CC(n2cc(C)c(=O)[nH]c2=O)O1 (stereo not drawn) [6 cz, γ‐(AB‐C4,alkyl‐C18)‐d4TTP] | – | – | – | 13000 ± 1000 nM | 160 ± 100 nM | – | – | – |
| CCCCCCCCCCCCCCCC(=O)Oc1ccc(COP(=O)(OCCCC)OP(=O)(O)OP(=O)(O)OCC2C=CC(n3cc(C)c(=O)[nH]c3=O)O2)cc1 (stereo not drawn) [6 ew, γ‐(AB‐C15,alkyl‐C4)‐d4TTP] | – | – | – | 21000 ± 2000 nM | 240 ± 10 nM | – | – | – |
| CCCCOP(=O)(O)OP(=O)(O)OP(=O)(O)OCC1C=CC(n2cc(C)c(=O)[nH]c2=O)O1 (stereo not drawn) [7 w, γ‐C4‐d4TTP] | good substrate | 290 ± 150 nM | – | > 100000 nM | – | single incorporation and an immediate chain termination | better substrates | – |
| CCCCCCCCCCCCCCCCCCOP(=O)(O)OP(=O)(O)OP(=O)(O)OCC1C=CC(n2cc(C)c(=O)[nH]c2=O)O1 (stereo not drawn) [7 z, γ‐C18‐d4TTP] | no incorporation was detected | 110 ± 84 nM | Only the n+1 band was detected | 86000 ± 3000 nM | – | – | – | immediate chain termination |
